Test results published in patent US20240400584A1, “COMPOUNDS AND METHODS FOR MODULATING SPLICING” (REMIX THERAPEUTICS INC., priority 2021, published 2024).

Legend:
MYB [1] = test: RT-qPCR splicing assay, MYB AJ/CJ mRNA; assay type: cell-based; details: Homo sapiens, A673 or K562 cells, 24 hours; for IC50: decrease in canonical junction mRNA; for AC50: increase in alternative junction mRNA
Method: (§1) Compounds described herein were used to modulate RNA transcript abundance in cells. The expression of a target mRNA was measured by detecting the formation of an exon-exon junction in the canonical transcript (CJ). A compound mediated exon-inclusion event was detected by observing an increase in formation OF A new junction with an alternative exon (AJ). Real-time qPCR assays were used to detect these splicing switches and interrogate the potency of various compounds towards different target Genes. A high-throughput real time quantitative PCR (RT-qPCR) assay was developed to measure these two isoforms of the mRNA (CJ and AJ) for exemplary genes, such as HTT, SMN2, and MYB, together with a control housekeeping gene, GAPDH or GUSB or PPIA, used for normalization. Briefly, the A673 or K562 cell line was treated with various compounds described herein (e.g., compounds of Formula (i)). After treatment, the levels of the HTT, MYB, or SMN2 mRNA targets were determined from each sample of cell lysate by cDNA synthesis followed by qPCR.
(§2) The A673 cell line was cultured in DMEM with 10% FBS. Cells were diluted with full growth media and plated in a 96-well plate (15,000 cells in 100 ul media per well). The plate was incubated at 37° C. with 5% CO2 for 24 hours to allow cells to adhere. An 11-point 3-fold serial dilution of the compounds was made in DMSO then diluted in media in an intermediate plate. Compounds were transferred from the intermediate plate to the cell plate with the top dose at a final concentration of 10 uM in the well. Final DMSO concentration was kept at or below 0.25%. The cell plate was returned to the incubator at 37° C. with 5% CO2 for an additional 24 hours.
(§3) The K562 cell line was cultured in IMDM with 10% FBS. For K562, cells were diluted with full growth media and plated in either a 96-well plate (50,000 cells in 50 uL media per well) or a 384-well plate (8,000-40,000 cells in 45 uL media per well). An 11-point 3-fold serial dilution of the compounds were made in DMSO then diluted in media in an intermediate plate. Compound was transferred from the intermediate plate to the cell plate with the top dose at a final concentration of 10 uM in the well. Final DMSO concentration was kept at or below 0.25%. Final volume was 100 uL for 96-well plate and 50 uL for 384-well plate. The cell plate was then placed in an incubator at 37° C. with 5% CO2 for 24 hours.
(§4) The cells were then gently washed with 50 uL-100 uL Cold Pbs before proceeding to addition of lysis buffer. 30 uL-50 μL of room temperature lysis buffer with DNAse I (and optionally RNAsin) was added to each well. Cells were shaken/mixed thoroughly at room temperature for 5-10 minutes for lysis to take place and then 3 uL-5 μL of room temperature stop solution was added and wells were shaken/mixed again. After 2-5 minutes, the cell lysate plate was transferred to ice for RT-qPCR reaction setup. The lysates could also be frozen at −80° C. for later use.
(§5) In some cases, a direct lysis buffer was used. an appropriate volume of 3× lysis buffer (10 mM tRis, 150 mM NaCl, 1.5%-2.5% Igepal and 0.1-1 U/uL RNAsin, pH 7.4) was directly added to either K562 or A673 cells in media and mixed by pipetting 3 times. The plates were then incubated at room temperature with shaking/rocking for 20-50 minutes to allow for lysis to take place. After this time, the cell lysate plate was transferred to ice to set up for the RT-qPCR reactions. The lysates could also be frozen at −80° C. for later use.
(§6) To set up 10 uL RT-QpcR reactions, cell lysates were transferred to 384-well qPCR plates containing the master mix according to the table below. The plates were sealed, gently vortexed, and spun down before the run. The volumes were adjusted accordingly in some instances where the reaction was carried in 20 µL. The table below summarizes the components of the RT-qPCR reactions:
(§7) The RT-qPCR reaction was performed using a QuantStudio (ThermoFisher) under the following fast cycling conditions. […]

HTT [2] = test: RT-qPCR splicing assay, HTT AJ/CJ mRNA; assay type: cell-based, human; details: Homo sapiens, 24 h, A673 or K562 cells; for IC50: decrease in canonical junction mRNA; for AC50: increase in alternative junction mRNA
Method: as §1, §2, §3, §4, §5, §6, §7

Target C = test: Gene panel canonical junction qPCR assay, Target C CJ mRNA (Table 7); assay type: cell-based, human; details: Homo sapiens, read-out: Target C CJ mRNA decrease IC50
Method: as §1
(§8) The data analysis was performed by first determining the ΔCt vs the housekeeper gene. This ΔCt was then normalized against the DMSO control (ΔΔCt) and converted to RQ (relative quantification) using the 2^(−ΔΔCt) equation. The RQ were then converted to a percentage response by arbitrarily setting an assay window of 3.5 and 4.0 ΔCt for HTT-CJ and MYB-CJ respectively and an assay window of 9 and 3 ΔCt for HTT-AJ and MYB-AJ in 96 well format (50,000 K562 cells/well and 15,000 A673 cells per well) and an assay window of 3 and 4 ΔCt for HTT-CJ and MYB-CJ respectively and an assay window of 5 and 3 ΔCt for HTT-AJ and MYB-AJ respectively in 384 well format (8,000 K562 cells/well example). […] The percentage response was then fitted to the 4 parametric logistic equation to evaluate the concentration dependence of compound treatment. The increase in AJ mRNA is reported as AC50 (compound concentration having 50% response in AJ increase) while the decrease in CJ mRNA levels is reported as IC50 (compound concentration having 50% response in CJ decrease).
(§9) Additional studies were carried out for a larger panel of genes using the protocol provided above. The junction between flanking upstream and downstream exons was used to design canonical junction qPCR assays. At least one of the forward primer, reverse primer or the CY5-labeled 5′ nuclease probe (with 3′ quencher such as ZEN/Iowa Black FQ) was designed to overlap with the exon junction to capture the CJ mRNA transcript. BLAST was used to confirm the specificity of the probeset and parameters such as melting temperature, GC content, amplicon size, and primer dimer formation are considered during their design. Data for the decrease in CJ mRNA levels for four exemplary genes (HTT, SMN2, MYB, and Target C) analyzed in this panel are reported as IC50 (compound concentration having 50% response in CJ decrease).

MYB [3] = test: Gene panel canonical junction qPCR assay, MYB CJ mRNA (Table 7); assay type: cell-based; details: Homo sapiens, read-out: MYB CJ mRNA decrease IC50
Method: as §1, §8, §9

SMN2 = test: Gene panel canonical junction qPCR assay, SMN2 CJ mRNA (Table 7); assay type: cell-based; details: Homo sapiens, read-out: SMN2 CJ mRNA decrease IC50
Method: as §1, §8, §9

HTT [4] = test: Gene panel canonical junction qPCR assay, HTT CJ mRNA (Table 7); assay type: cell-based, human; details: Homo sapiens, read-out: HTT CJ mRNA decrease IC50
Method: as §1, §8, §9

| SMILES | IC50 (MYB [1]) | IC50 (HTT [2]) | IC50 (Target C) | IC50 (MYB [3]) | IC50 (SMN2) | IC50 (HTT [4]) | AC50 (MYB [1]) | AC50 (HTT [2]) |
| --- | --- | --- | --- | --- | --- | --- | --- | --- |
| c1cnn(-c2ccc3c(c2)COc2nc(OC4CCNCC4)ccc2-3)c1 [Compound 187] | > 10000 nM | 1000 to 10000 nM | > 10000 nM | > 10000 nM | 1000 to 10000 nM | 1000 to 10000 nM | > 10000 nM | > 10000 nM |
| [2H]C([2H])([2H])N(c1ccc2c(n1)OCc1cc(-n3cccn3)ccc1-2)[C@@H]1C[C@H]2CC[C@@H](C1)N2 [Compound 201] | 100 to 1000 nM | 100 to 1000 nM | 100 to 1000 nM | 100 to 1000 nM | < 100 nM | 100 to 1000 nM | 1000 to 10000 nM | 100 to 1000 nM |
| CN(c1ncc2c(n1)OCc1cc(-c3cn[nH]c3)ccc1-2)[C@@H]1C[C@H]2CC[C@@H](C1)N2 [Compound 294] | 100 to 1000 nM | < 100 nM | 100 to 1000 nM | 100 to 1000 nM | 100 to 1000 nM | < 100 nM | 1000 to 10000 nM | 100 to 1000 nM |
| c1cnn(-c2ccc3c(c2)COc2nc(S[C@@H]4C[C@H]5CC[C@@H](C4)N5)ccc2-3)c1 [Compound 193] | 1000 to 10000 nM | > 10000 nM | > 10000 nM | 1000 to 10000 nM | > 10000 nM | 1000 to 10000 nM | > 10000 nM | > 10000 nM |
| COc1cc(-c2ccc3c(c2)COc2nc(N4CC[C@@H](NC(C)(C)C)C4)ncc2-3)cnn1 [Compound 278] | 100 to 1000 nM | < 100 nM | 100 to 1000 nM | 100 to 1000 nM | < 100 nM | < 100 nM | 100 to 1000 nM | 100 to 1000 nM |
| Cn1ncc(-c2ccc3c(c2)COc2nc(OC4CC5CC(F)(F)C(C4)N5)ccc2-3)cc1=O (stereo not drawn) [Compound 261, 5-[3-({6,6-difluoro-8-azabicyclo[3.2.1]octan-3-yl}oxy)-6H-isochromeno[3,4-b]pyridin-8-yl]-2-methylpyridazin-3-one] | > 10000 nM | > 10000 nM | > 10000 nM | > 10000 nM | > 10000 nM | > 10000 nM | > 10000 nM | > 10000 nM |
| COc1cc(-c2ccc3c(c2)COc2nc(O[C@@H]4C[C@H]5CC[C@@H](C4)N5)ncc2-3)cnn1 [Compound 298] | 1000 to 10000 nM | 100 to 1000 nM | 1000 to 10000 nM | 1000 to 10000 nM | < 100 nM | 100 to 1000 nM | 100 to 1000 nM | 100 to 1000 nM |
| c1cnn(-c2ccc3c(c2)COc2nc(N4CCC(NC5CC5)C4)ccc2-3)n1 (stereo not drawn) [Compound 249, N-cyclopropyl-1-[8-(1,2,3-triazol-2-yl)-6H-isochromeno[3,4-b]pyridin-3-yl]pyrrolidin-3-amine] | > 10000 nM | 1000 to 10000 nM | > 10000 nM | > 10000 nM | 100 to 1000 nM | 1000 to 10000 nM | > 10000 nM | 1000 to 10000 nM |
| CN(c1ccc2c(n1)OCc1cc(-n3cccn3)ccc1-2)[C@@H]1C[C@H]2CCC[C@@H](C1)N2 [Compound 178] | 100 to 1000 nM | < 100 nM | 100 to 1000 nM | 100 to 1000 nM | < 100 nM | < 100 nM | < 100 nM | < 100 nM |
| CCN(c1ccc2c(n1)OCc1cc(-n3cccn3)ccc1-2)C1CC(C)(C)NC(C)(C)C1 [Compound 189] | 1000 to 10000 nM | > 10000 nM | > 10000 nM | 1000 to 10000 nM | 1000 to 10000 nM | > 10000 nM | > 10000 nM | 1000 to 10000 nM |

Now from value to compound, other results behind:

| IC50 (MYB [1]) | IC50 (HTT [2]) | IC50 (Target C) | IC50 (MYB [3]) | IC50 (SMN2) | IC50 (HTT [4]) | SMILES | AC50 (MYB [1]) | AC50 (HTT [2]) |
| --- | --- | --- | --- | --- | --- | --- | --- | --- |
| > 10000 nM | 1000 to 10000 nM | > 10000 nM | > 10000 nM | 1000 to 10000 nM | 1000 to 10000 nM | COc1cc(-c2ccc3c(c2)COc2nc(N4CCC(N)CC4)ccc2-3)cnn1 [Compound 288] | > 10000 nM | 1000 to 10000 nM |
| > 10000 nM | 1000 to 10000 nM | > 10000 nM | > 10000 nM | 1000 to 10000 nM | 1000 to 10000 nM | CC(C)(C)NC1CCN(c2ccc3c(n2)OCc2cc(-c4cnnc(OC5CC5)c4)ccc2-3)C1 (stereo not drawn) [Compound 268, N-tert-butyl-1-[8-(6-cyclopropoxypyridazin-4-yl)-6H-isochromeno[3,4-b]pyridin-3-yl]pyrrolidin-3-amine] | > 10000 nM | 1000 to 10000 nM |
| 1000 to 10000 nM | 100 to 1000 nM | 100 to 1000 nM | 1000 to 10000 nM | 100 to 1000 nM | 100 to 1000 nM | COc1cc(-c2ccc3c(c2)COc2nc(N4CCC(NC5(C)CC5)C4)ccc2-3)cnn1 (stereo not drawn) [Compound 256, 1-[8-(6-methoxypyridazin-4-yl)-6H-isochromeno[3,4-b]pyridin-3-yl]-N-(1-methylcyclopropyl)pyrrolidin-3-amine] | 1000 to 10000 nM | 100 to 1000 nM |
| > 10000 nM | > 10000 nM | > 10000 nM | > 10000 nM | > 10000 nM | > 10000 nM | Cc1cc(-c2ccc3c(c2)COc2nc(N4CC[C@H](NC(C)(C)C)C4)ccc2-3)cnn1 (single isomer, unassigned) [Compound 273, N-tert-butyl-1-[8-(6-methylpyridazin-4-yl)-6H-isochromeno[3,4-b]379yrrolid-3-yl]379yrrolidine-3-amine] | > 10000 nM | > 10000 nM |
| 100 to 1000 nM | < 100 nM | 100 to 1000 nM | 100 to 1000 nM | < 100 nM | < 100 nM | COc1cc(-c2ccc3c(c2)COc2nc(N4CCN[C@H](C5CC5)C4)ccc2-3)cnn1 [Compound 297] | 100 to 1000 nM | 100 to 1000 nM |
